ChEMBL document CHEMBL1201862, “PubChem BioAssay data set” (2004)
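Compound exposure: 48 hours, 5 concentrations, 96-well plates. GI50 is the concentration that inhibits growth by half.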 Calls of active or inactive are those of the source. Rule as the data show it: active = GI50 up to about 1.1 µM and inactive = higher.

What was measured:
Test in all cases: DTP human tumour cell line panel, 48 h
786-0 = system: 786-0
A549 = system: A549
ACHN = system: ACHN
CAKI-1 = system: CAKI-1
CCRF-CEM = system: CCRF-CEM
COLO 205 = system: COLO 205
DLD-1 = system: DLD-1
DMS-114 = system: DMS-114
DMS-273 = system: DMS-273
EKVX = system: EKVX
HCC 2998 = system: HCC 2998
HCT-15 = system: HCT-15
HL-60 = system: HL-60
HOP-18 = system: HOP-18
HOP-62 = system: HOP-62
HOP-92 = system: HOP-92
HT-29 = system: HT-29
IGROV-1 = system: IGROV-1
K562 = system: K562
KM-20L2 = system: KM-20L2
KM12 = system: KM12
LOX IMVI = system: LOX IMVI
LXFL 529 = system: LXFL 529
M14 = system: M14
M19-MEL = system: M19-MEL
MOLT-4 = system: MOLT-4
Malme-3M = system: Malme-3M
NCI-H23 = system: NCI-H23
NCI-H460 = system: NCI-H460
NCI-H522 = system: NCI-H522
OVCAR-3 = system: OVCAR-3
OVCAR-4 = system: OVCAR-4
OVCAR-5 = system: OVCAR-5
OVCAR-8 = system: OVCAR-8
RPMI-8226 = system: RPMI-8226
RXF 393 = system: RXF 393
SF-268 = system: SF-268
SF-295 = system: SF-295
SF-539 = system: SF-539
SK-MEL-28 = system: SK-MEL-28
SK-MEL-2 = system: SK-MEL-2
SK-MEL-5 = system: SK-MEL-5
SK-OV-3 = system: SK-OV-3
SN12C = system: SN12C
SNB-19 = system: SNB-19
SNB-75 = system: SNB-75
SW-620 = system: SW-620
TK-10 = system: TK-10
U-251 = system: U-251
UACC-257 = system: UACC-257
UACC-62 = system: UACC-62
UO-31 = system: UO-31

For `CC1(C=O)C(=O)CCC2(C)C3CC(=O)OC3CCC12` (configuration not stated), the GI50 (786-0) was > 100 µM (inactive), the GI50 (A549) was > 100 µM (inactive) and the GI50 (ACHN) was > 100 µM (inactive). The GI50 (CAKI-1) was > 100 µM (inactive), the GI50 (CCRF-CEM) was > 100 µM (inactive) and the GI50 (COLO 205) was > 100 µM (inactive). For the same compound, the GI50 (DLD-1) was > 100 µM (inactive), the GI50 (DMS-114) was > 100 µM (inactive) and the GI50 (DMS-273) was > 100 µM (inactive). For the same compound, the GI50 (EKVX) was > 100 µM (inactive), the GI50 (HCC 2998) was > 100 µM (inactive) and the GI50 (HCT-15) was greater than 100 µM. The GI50 (HL-60) was > 100 µM (inactive), the GI50 (HOP-18) was > 100 µM (inactive) and the GI50 (HOP-62) was > 100 µM (inactive). The GI50 (HOP-92) was > 100 µM (inactive), the GI50 (HT-29) was > 100 µM (inactive) and the GI50 (IGROV-1) was > 100 µM (inactive). The GI50 (K562) was > 100 µM (inactive), the GI50 (KM-20L2) was > 100 µM (inactive) and the GI50 (KM12) was > 100 µM (inactive). For the same compound, the GI50 (LOX IMVI) was > 100 µM (inactive), the GI50 (LXFL 529) was > 100 µM (inactive) and the GI50 (M14) was > 100 µM (inactive). For the same compound, the GI50 (M19-MEL) was > 100 µM (inactive), the GI50 (MOLT-4) was > 100 µM (inactive) and the GI50 (Malme-3M) was > 100 µM (inactive). For the same compound, the GI50 (NCI-H23) was > 100 µM (inactive), the GI50 (NCI-H460) was > 100 µM (inactive) and the GI50 (NCI-H522) was > 100 µM (inactive). The GI50 (OVCAR-3) was > 100 µM (inactive), the GI50 (OVCAR-4) was > 100 µM (inactive) and the GI50 (OVCAR-5) was > 100 µM (inactive). For the same compound, the GI50 (OVCAR-8) was > 100 µM (inactive), the GI50 (RPMI-8226) was > 100 µM (inactive) and the GI50 (RXF 393) was > 100 µM (inactive). The GI50 (SF-268) was > 100 µM (inactive), the GI50 (SF-295) was > 100 µM (inactive) and the GI50 (SF-539) was > 100 µM (inactive). For the same compound, the GI50 (SK-MEL-28) was > 100 µM (inactive), the GI50 (SK-MEL-2) was > 100 µM (inactive) and the GI50 (SK-MEL-5) was > 100 µM (inactive). For the same compound, the GI50 (SK-OV-3) was > 100 µM (inactive), the GI50 (SN12C) was > 100 µM (inactive) and the GI50 (SNB-19) was > 100 µM (inactive). The GI50 (SNB-75) was > 100 µM (inactive), the GI50 (SW-620) was > 100 µM (inactive) and the GI50 (TK-10) was > 100 µM (inactive). The GI50 (U-251) was > 100 µM (inactive), the GI50 (UACC-257) was > 100 µM (inactive) and the GI50 (UACC-62) was > 100 µM (inactive). The GI50 (UO-31) was > 100 µM (inactive).
